Values of other authors, collected in patent publication US20110229418A1, “Compositions and Methods of Treating and Preventing Lung Cancer” (priority 2010, published 2011).
Like-named read-outs stand apart in the source and are kept apart here.

How the values were obtained:
Lewis lung LLC1 cells = settings: mice injected with Lewis lung LLC1 cells, orally administered
[1] = patients with type 2 diabetes, compared with those that did not use metformin
[2] = long-term treatment
lung cancer cell [3] = settings: in vitro
lung cancer cell [4] = settings: in vivo
[5] = test system: tobacco carcinogen-induced lung tumorigenesis; settings: mice
[6] = test system: AMP activated protein kinase (AMPK) pathway

## CN(C)C(=N)N=C(N)N [metformin]
Lewis lung LLC1 cells; control diet
  tumor growth: no effect on tumor growth
Lewis lung LLC1 cells; high-energy diet
  tumor growth: reduce tumor growth
[1]
  cancer mortality: lower cancer mortality
[2]
  adverse effects: few adverse effects
Human lung cancer cells
  sensitization to ionizing radiation: sensitizes human lung cancer cells to ionizing radiation
Lung cancer cell [3]
  lung cancer cell growth: inhibited
Lung cancer cell [4]
  lung cancer cell growth: inhibited
[5]
  tobacco carcinogen-induced lung tumorigenesis: prevents tobacco carcinogen-induced lung tumorigenesis
[6]
  AMPK pathway activation: activates the AMP activated protein kinase (AMPK) pathway
